Results from patent US10538487B2, “Sulfonylureas and related compounds and use of same” (priority 2015, dated 2020).
“And” between values parts separate entries of the source, which are not always exact repeats. Identical values can stand only once. Like-named read-outs stand apart in the source and are kept apart here.

Assay: Single dose pharmacokinetic study in mice (iv 4 mg/Kg, po 20 mg/Kg), plasma concentration post-dosing
Type: in vivo, mouse
Conditions: mouse
Method: This is advantageous leading to comparatively lower doses or less frequent administration. The procedure followed was: Male C57BL/6 mice were used at 7-9 weeks age with 3 animals per group. Mice were dosed with test compound using single intravenous bolus or oral gavage. Blood samples were taken via submandibular or saphenous vein for analysis of plasma concentrations of compound by LC-MS/MS at the following timepoints: IV (3 mice): 0.083, 0.25, 0.5, 1, 2, 4, 8 and 24 hours post dosing, PO (3 mice): 0.25, 0.5, 1, 2, 4, 8 and 24 hours post dosing. LC-MS/MS method for the quantitative determination of test compound in corresponding biological matrix was developed. […] The results are shown graphically in FIGS. 1A to 1C (MCC950) and FIGS. 2A to 2C (MCC7840).

[1] = IV 4 mg/Kg, individual mice M1-M3, 4 mg/kg
[2] = PO 20 mg/Kg, individual mice M4-M6, 20 mg/kg

Q: Which results are given for `CC(C)(O)c1coc(S(=O)(=O)NC(=O)Nc2c3c(cc4c2CCC4)CCC3)c1` [MCC_000950_016, N-((1,2,3,5,6,7-hexahydro-s-indacen-4-yl)carbamoyl)-4-(2-hydroxypropan-2-yl)furan-2-sulfonamide, reference compound]?
A: AUC0-inf (male, C57BL/6, mouse, plasma, po, 20 mg/kg, PO 20 mg/Kg, mean of 3 mice, read-out: AUC0-inf, Mean PO): 126 µg·h/mL; AUC(0-t) (male, C57BL/6, mouse, plasma, po, 20 mg/kg, PO 20 mg/Kg, mean of 3 mice, read-out: AUC0-last, Mean PO): 125 µg·h/mL; Cmax (male, C57BL/6, mouse, plasma, po, 20 mg/kg, PO 20 mg/Kg, mean of 3 mice, read-out: Cmax, Mean PO): 35000 ng/mL; MRT inf (male, C57BL/6, mouse, plasma, po, 20 mg/kg, PO 20 mg/Kg, mean of 3 mice, read-out: MRT0-inf, Mean PO): 3.63 h; MRT last (male, C57BL/6, mouse, plasma, po, 20 mg/kg, PO 20 mg/Kg, mean of 3 mice, read-out: MRT0-last, Mean PO): 3.6 h; half-life (male, C57BL/6, mouse, plasma, po, 20 mg/kg, PO 20 mg/Kg, mean of 3 mice, read-out: T1/2, Mean PO (converted)): 2.39 h; Tmax (male, C57BL/6, mouse, plasma, po, 20 mg/kg, PO 20 mg/Kg, mean of 3 mice, read-out: Tmax, Mean PO): 0.333 h; Plasma concentration, IV Time 5 min (IV 4 mg/Kg, 5 min post dosing, individual mice M1-M3, 4 mg/kg): 17200 ng/mL and 17700 ng/mL; Plasma concentration, IV Time 0.250 h (IV 4 mg/Kg, 0.250 h post dosing, individual mice M1-M3, 4 mg/kg): 10200 ng/mL and 12700 ng/mL; Plasma concentration, IV Time 0.500 h (IV 4 mg/Kg, 0.500 h post dosing, individual mice M1-M3, 4 mg/kg): 9420 ng/mL and 10500 ng/mL; Plasma concentration, IV Time 1.00 h (IV 4 mg/Kg, 1.00 h post dosing, individual mice M1-M3, 4 mg/kg): 7730 ng/mL and 8230 ng/mL; Plasma concentration, IV Time 2.00 h (IV 4 mg/Kg, 2.00 h post dosing, individual mice M1-M3, 4 mg/kg): 6000 ng/mL and 5010 ng/mL; Plasma concentration, IV Time 4.00 h (IV 4 mg/Kg, 4.00 h post dosing, individual mice M1-M3, 4 mg/kg): 2390 ng/mL and 2130 ng/mL; Plasma concentration, IV Time 8.00 h (IV 4 mg/Kg, 8.00 h post dosing, individual mice M1-M3, 4 mg/kg): 843 ng/mL and 480 ng/mL; Plasma concentration, IV Time 24.0 h (IV 4 mg/Kg, 24.0 h post dosing, individual mice M1-M3, 4 mg/kg): 2.33 ng/mL; Tlast (IV 4 mg/Kg, individual mice M1-M3): 24.0 h; AUC0-inf [1]: 33.496 µg·h/mL and 30.758 µg·h/mL; AUC0-last [1]: 33.489 µg·h/mL and 30.751 µg·h/mL; AUCExtra [1]: 0.0226% and 0.0198% and 0.0224%; AUMCExtra [1]: 0.219% and 0.187% and 0.251%; C0 [1]: 22332 ng/mL and 20894 ng/mL; Cl [1]: 1.99 mL/min/kg and 2.17 mL/min/kg; MRT0-inf [1]: 2.84 h and 2.41 h; MRT0-last [1]: 2.83 h and 2.40 h; T1/2 [1]: 1.97 h and 2.05 h; Vdss [1]: 0.339 L/kg and 0.313 L/kg; AUCExtra, Mean IV (IV 4 mg/Kg, mean of 3 mice): 0.0216%; AUMCExtra, Mean IV (IV 4 mg/Kg, mean of 3 mice): 0.219%; C0, Mean IV (IV 4 mg/Kg, mean of 3 mice): 21974 ng/mL; Tlast, Mean IV (IV 4 mg/Kg, mean of 3 mice): 24.0 h; bioavailability (PO 20 mg/Kg vs IV 4 mg/Kg, Mean PO): 71.0%; Plasma concentration, PO Time 0.250 h (PO 20 mg/Kg, 0.250 h post dosing, individual mice M4-M6, 20 mg/kg): 21900 ng/mL and 29000 ng/mL and 48900 ng/mL; Plasma concentration, PO Time 0.500 h (PO 20 mg/Kg, 0.500 h post dosing, individual mice M4-M6, 20 mg/kg): 34100 ng/mL and 35800 ng/mL; Plasma concentration, PO Time 1.00 h (PO 20 mg/Kg, 1.00 h post dosing, individual mice M4-M6, 20 mg/kg): 33700 ng/mL and 37000 ng/mL; Plasma concentration, PO Time 2.00 h (PO 20 mg/Kg, 2.00 h post dosing, individual mice M4-M6, 20 mg/kg): 22500 ng/mL and 26200 ng/mL; Plasma concentration, PO Time 4.00 h (PO 20 mg/Kg, 4.00 h post dosing, individual mice M4-M6, 20 mg/kg): 13000 ng/mL and 10500 ng/mL; Plasma concentration, PO Time 8.00 h (PO 20 mg/Kg, 8.00 h post dosing, individual mice M4-M6, 20 mg/kg): 2360 ng/mL and 4670 ng/mL; Plasma concentration, PO Time 24.0 h (PO 20 mg/Kg, 24.0 h post dosing, individual mice M4-M6, 20 mg/kg): 60.7 ng/mL and 17.4 ng/mL and 39.3 ng/mL; Tlast (PO 20 mg/Kg, individual mice M4-M6): 24.0 h; AUC0-inf [2]: 123.452 µg·h/mL and 144.868 µg·h/mL; AUC0-last [2]: 123.399 µg·h/mL and 144.734 µg·h/mL; AUCExtra [2]: 0.216% and 0.0429% and 0.0929%; AUMCExtra [2]: 1.40% and 0.376% and 0.730%; Cmax [2]: 21900 ng/mL and 34100 ng/mL and 48900 ng/mL; MRT0-last [2]: 3.07 h and 3.47 h; T1/2 [2]: 2.11 h and 2.37 h; Tmax [2]: 0.500 h; AUCExtra, Mean PO (PO 20 mg/Kg, mean of 3 mice): 0.117%; AUMCExtra, Mean PO (PO 20 mg/Kg, mean of 3 mice): 0.835%; Tlast, Mean PO (PO 20 mg/Kg, mean of 3 mice): 24.0 h
